Source: patent US7317025B2, “Non-peptidic NPY Y2 receptor inhibitors” (Johnson & Johnson Pharmaceutical Research & Development, LLC, priority 2003, dated 2008)
pIC50: −log10 of the molar value. Where two headings read alike, the source gives them in different places.

Target: T1, Y2 receptors (Homo sapiens, UniProt P49146)
T1 construct: KAN-Ts endogenously expressing Y2 receptors; endogenous in cells; host or cells: KAN-Ts cells (membrane preparation)
T1 sequence (P49146 1-381): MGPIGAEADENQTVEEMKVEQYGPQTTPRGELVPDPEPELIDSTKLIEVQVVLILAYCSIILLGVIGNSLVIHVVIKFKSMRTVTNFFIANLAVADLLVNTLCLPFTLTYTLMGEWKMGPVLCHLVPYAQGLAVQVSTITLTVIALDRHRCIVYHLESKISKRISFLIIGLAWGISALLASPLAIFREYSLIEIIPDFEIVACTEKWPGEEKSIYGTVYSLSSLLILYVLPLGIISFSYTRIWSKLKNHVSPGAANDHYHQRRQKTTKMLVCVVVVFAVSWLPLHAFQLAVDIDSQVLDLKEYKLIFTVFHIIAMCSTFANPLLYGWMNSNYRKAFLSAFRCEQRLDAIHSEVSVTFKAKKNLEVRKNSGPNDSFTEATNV
Experiment: Radioligand binding assay, [125I]PYY, KAN-Ts membranes
Description: Radioligand Binding Assay
KAN-Ts endogenously expressing Y2 receptors were used for the radioligand binding assay. Cells were grown to confluence on 150 cm^2 tissue culture plates, washed with phosphate-buffered saline (PBS), and scraped into 50 mL tubes. After centrifugation, the supernatant was aspirated, and the pellets frozen and stored at −80° C. Thawed pellets were homogenized with a polytron tissue grinder for 15 sec in 20 mM Tris-HCl, 5 mM EDTA. The homogenate was centrifuged at 800×g for 5 min and the collected supernatant was recentrifuged at 25000×g for 25 min. The resulting pellet was resuspended in binding buffer (20 mM HEPES, 120 mM NaCl, 0.22 mM KH2PO4, 1.3 mM CaCl2, 0.8 mM MgSO4). Membranes were incubated with [^125I]PYY (80 pM) in the presence or absence of test compound for 1 h at rt. The reaction was stopped by filtration through GF/C filter plates pre-soaked in 0.3% polyethylenimine and subsequently washed with Tris 50 mM, 5 mM EDTA buffer. Plates were dried for 1 h in a 55° C. oven, scintillation fluid was added and the radioactivity was counted in a Packard TopCount. Specific binding to the NPY receptor subtypes was determined by radioactivity that was bound in the presence of […] NPY. Each binding experiment was repeated three to eight times, each in duplicate. IC50 values (i.e. concentration of unlabelled peptide or antagonist required to compete for 50% of specific binding to the radioligand) were calculated using the GraphPad Prism software (GraphPad Software Inc., San Diego Calif.) with a fit to a sigmoidal dose response curve. Data were expressed as pIC50 values where pIC50=−log IC50.

[1] = membranes of KAN-Ts cells endogenously expressing Y2 receptors, [125I]PYY (80 pM), 1 h at rt

SMILES | pIC50 [1] | pIC50
C=CCN(CCCN(C(=O)/C=C/c1ccccc1)c1ccc2c(c1)N(C(C)=O)CC2)Cc1ccccc1 [Example 48, trans-N-(1-Acetyl-2,3-dihydro-1H-indol-6-yl)-N-[3-(allyl-benzyl-amino)-propyl]-3-phenyl-acrylamide] | 4.92 | 
CC(=O)N1CCc2ccc(N(C(=O)/C=C/c3ccccc3)C3CCN(Cc4ccccc4)C3)cc21 (stereo not drawn) [Example 46, trans-N-(1-Acetyl-2,3-dihydro-1H-indol-6-yl)-N-(1-benzyl-pyrrolidin-3-yl)-3-phenyl-acrylamide] | 4.74 | 
CC(=O)N1CCc2ccc(N(C(=O)/C=C/c3ccccc3)C3CCCN(Cc4ccccc4)C3)cc21 (stereo not drawn) [Example 45, trans-N-(1-Acetyl-2,3-dihydro-1H-indol-6-yl)-N-(1-benzyl-piperidin-3-yl)-3-phenyl-acrylamide] | 4.80 | 
CC(=O)N1CCc2ccc(N(CCCNCc3ccccc3)C(=O)/C=C/c3ccccc3)cc21 [Example 47, trans-N-(1-Acetyl-2,3-dihydro-1H-indol-6-yl)-N-(3-benzylamino-propyl)-3-phenyl-acrylamide] | 4.92 | 
CC(=O)N1CCc2ccc(N(C(=O)/C=C/c3ccccc3)C3CCN(C(=O)c4ccccc4)CC3)cc21 [Example 39, trans-N-(1-Acetyl-2,3-dihydro-1H-indol-6-yl)-N-(1-benzoyl-piperidin-4-yl)-3-phenyl-acrylamide] |  | 4.54
